Measured values taken from patent publication US11453683B1, “KRas G12D inhibitors” (Mirati Therapeutics, Inc., priority 2019, dated 2022).
Where a name gives a salt, the structure may show the parent alone.

Test system: KRas G12D-mediated phosphorylation of ERK
Experiment: Inhibition of KRas G12D-mediated phosphorylation of ERK in AGS cells
Type: cell-based
Details: Homo sapiens; AGS cells expressing G12D, 3 hours, phospho-ERK normalized to GAPDH
Outline: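 Fixed, methanol-permeabilized; phospho-ERK (Thr202/Tyr204) by in-cell immunofluorescence normalized to GAPDH. Percent of DMSO control, IC50 by 4-parameter fit.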

Structure (SMILES)	IC50 [µM]
CO[C@@H]1C[C@@H]2CN(c3nc(OC[C@@]45CCCN4C[C@H](F)C5)nc4c(F)c(-c5cccc6cccc(Cl)c56)ncc34)C[C@H]1N2 [Example 397, 7-(8-chloronaphthalen-1-yl)-8-fluoro-2-((2-fluorotetrahydro-1H-pyrrolizin-7a(5H)-yl)methoxy)-4-((1R,5R,6R)-6-methoxy-3,8-diazabicyclo[3.2.1]octan-3-yl)pyrido[4,3-d]pyrimidine]	> 16.7
CN(C)C1CN(c2nc(N3C[C@H]4CC[C@@H](C3)N4)c3cnc(-c4cccc5cccc(Cl)c45)c(F)c3n2)C1 [Example 122, 1-(4-((1R,5S)-3,8-diazabicyclo[3.2.1]octan-3-yl)-7-(8-chloronaphthalen-1-yl)-8-fluoropyrido[4,3-d]pyrimidin-2-yl)-N,N-dimethylazetidin-3-amine]	> 16.7
C#Cc1cccc2cc(O)cc(-c3ncc4c(N5C[C@H]6CC[C@@H](C5)N6)ncnc4c3F)c12 [Example 244, 4-(4-((1R,5S)-3,8-diazabicyclo[3.2.1]octan-3-yl)-8-fluoropyrido[4,3-d]pyrimidin-7-yl)-5-ethynylnaphthalen-2-ol]	0.763
Oc1cc(-c2ncc3c(N4C[C@H]5CC[C@@H](C4)N5)nc(OCC45CCCN4CCC5)nc3c2F)c2c(F)cccc2c1 [Example 367, 4-(4-((1R,5S)-3,8-diazabicyclo[3.2.1]octan-3-yl)-8-fluoro-2-((tetrahydro-1H-pyrrolizin-7a(5H)-yl)methoxy)pyrido[4,3-d]pyrimidin-7-yl)-5-fluoronaphthalen-2-ol tris(2,2,2-trifluoroacetate)]	0.112
CO[C@@H]1C[C@@H](COc2nc(N3C[C@H]4CC[C@@H](C3)N4)c3cnc(-c4cc(O)cc5ccccc45)c(F)c3n2)N(C)C1 [Example 42, 4-(4-((1R,5S)-3,8-diazabicyclo[3.2.1]octan-3-yl)-8-fluoro-2-(((2S,4R)-4-methoxy-1-methylpyrrolidin-2-yl)methoxy)pyrido[4,3-d]pyrimidin-7-yl)naphthalen-2-ol]	0.638
CN1C[C@H](NC(=O)c2cccc(S(=O)(=O)F)c2)C[C@H]1COc1nc(N2C[C@H]3CC[C@@H](C2)N3)c2cnc(-c3cccc4cccc(Cl)c34)c(F)c2n1 [Example 211, 3-(((3R,5S)-5-(((4-((1R,5S)-3,8-diazabicyclo[3.2.1]octan-3-yl)-7-(8-chloronaphthalen-1-yl)-8-fluoropyrido[4,3-d]pyrimidin-2-yl)oxy)methyl)-1-methylpyrrolidin-3-yl)carbamoyl)benzenesulfonyl fluoride tris(2,2,2-trifluoroacetate)]	13.5
CC(C)c1ccccc1-c1ncc2c(N3CC4CCC(C3)N4)nc(OCC34CCCN3C[C@H](F)C4)nc2c1F (stereo partly drawn) [Example 348, 4-((1R,5S)-3,8-diazabicyclo[3.2.1]octan-3-yl)-8-fluoro-2-((2-fluorotetrahydro-1H-pyrrolizin-7a(5H)-yl)methoxy)-7-(2-isopropylphenyl)pyrido[4,3-d]pyrimidine]	0.779
Oc1cc(-c2ncc3c(N4C[C@H]5CC[C@@H](C4)N5)nc(N4CC5(CCOCC5)C4)nc3c2F)c2ccccc2c1 [Example 74, 4-(4-((1R,5S)-3,8-diazabicyclo[3.2.1]octan-3-yl)-8-fluoro-2-(7-oxa-2-azaspiro[3.5]nonan-2-yl)pyrido[4,3-d]pyrimidin-7-yl)naphthalen-2-ol]	5.47
CCc1cccc2cccc(-c3ncc4c(N5C[C@H]6CC[C@@H](C5)N6)nc(OCC56CCCN5CCC6)nc4c3F)c12 [Example 187, 4-((1R,5S)-3,8-diazabicyclo[3.2.1]octan-3-yl)-7-(8-ethylnaphthalen-1-yl)-8-fluoro-2-((tetrahydro-1H-pyrrolizin-7a(5H)-yl)methoxy)pyrido[4,3-d]pyrimidine]	0.45
Oc1cc(-c2ncc3c(N4C[C@H]5CC[C@@H](C4)N5)ncnc3c2F)c2ccccc2c1 [Example 181, 4-(4-((1R,5S)-3,8-diazabicyclo[3.2.1]octan-3-yl)-8-fluoropyrido[4,3-d]pyrimidin-7-yl)naphthalen-2-ol]	12.8
Fc1c(-c2cccc3cccc(Cl)c23)ncc2c(N3C[C@H]4CC[C@@H](C3)N4)nc(OCC34CCCN3CC(F)(F)C4)nc12 (stereo partly drawn) [Example 93, 4-((1R,5S)-3,8-diazabicyclo[3.2.1]octan-3-yl)-7-(8-chloronaphthalen-1-yl)-2-((2,2-difluorotetrahydro-1H-pyrrolizin-7a(5H)-yl)methoxy)-8-fluoropyrido[4,3-d]pyrimidine bis(2,2,2-trifluoroacetate)]	> 16.7
Cc1cc2[nH]ccc2c(-c2ncc3c(N4C[C@H]5CC[C@@H](C4)N5)nc(OCC45CCCN4CCC5)nc3c2F)c1C [Example 250, 4-((1R,5S)-3,8-diazabicyclo[3.2.1]octan-3-yl)-7-(5,6-dimethyl-1H-indol-4-yl)-8-fluoro-2-((hexahydro-1H-pyrrolizin-7a-yl)methoxy)pyrido[4,3-d]pyrimidine]	7.48
CC(C)(C)[Si](C)(C)OCC1CCC2(COc3nc(N4C[C@H]5CC[C@@H](C4)N5)c4cnc(-c5cccc6cccc(Cl)c56)c(F)c4n3)CCCN12 (stereo partly drawn) [Example 64, 4-((1R,5S)-3,8-diazabicyclo[3.2.1]octan-3-yl)-2-((3-(((tert-butyldimethylsilyl)oxy)methyl)tetrahydro-1H-pyrrolizin-7a(5H)-yl)methoxy)-7-(8-chloronaphthalen-1-yl)-8-fluoropyrido[4,3-d]pyrimidine]	3.97
Cc1cccc(-c2ncc3c(N4C[C@H]5CC[C@@H](C4)N5)nc(OCC45CCCN4CCC5)nc3c2F)c1C [Example 275, 4-((1R,5S)-3,8-diazabicyclo[3.2.1]octan-3-yl)-7-(2,3-dimethylphenyl)-8-fluoro-2-((hexahydro-1H-pyrrolizin-7a-yl)methoxy)pyrido[4,3-d]pyrimidine]	7.06
CO[C@@H]1CN2CCC[C@]2(COc2nc(N3C[C@H]4CC[C@@H](C3)N4)c3cnc(-c4cccc5cccc(Cl)c45)c(F)c3n2)C1 [Example 219, 4-((1R,5S)-3,8-diazabicyclo[3.2.1]octan-3-yl)-7-(8-chloronaphthalen-1-yl)-8-fluoro-2-((2-methoxytetrahydro-1H-pyrrolizin-7a(5H)-yl)methoxy)pyrido[4,3-d]pyrimidine bis-hydrochloride]	2.03
CO[C@H]1CN2CCC[C@]2(COc2nc(N3CC4CCC(C3)N4)c3cnc(-c4cccc5cccc(Cl)c45)c(F)c3n2)C1 [Example 225, 4-((1R,5S)-3,8-diazabicyclo[3.2.1]octan-3-yl)-7-(8-chloronaphthalen-1-yl)-8-fluoro-2-((2-methoxytetrahydro-1H-pyrrolizin-7a(5H)-yl)methoxy)pyrido[4,3-d]pyrimidine bis-2,2,2-trifluoroacetate]	3.06
CN1CCC[C@H]1COc1nc(N2CC3CCC(CO)(C2)N3)c2cnc(-c3cc(O)cc4ccccc34)c(F)c2n1 (stereo partly drawn) [Example 215, 4-(8-fluoro-4-(1-(hydroxymethyl)-3,8-diazabicyclo[3.2.1]octan-3-yl)-2-(((S)-1-methylpyrrolidin-2-yl)methoxy)pyrido[4,3-d]pyrimidin-7-yl)naphthalen-2-ol bis(2,2,2-trifluoroacetate)]	> 16.7
C[C@@H]1C[C@@H]1c1ccccc1-c1ncc2c(N3C[C@H]4CC[C@@H](C3)N4)nc(OCC34CCCN3CCC4)nc2c1F [Example 286, 4-((1R,5S)-3,8-diazabicyclo[3.2.1]octan-3-yl)-8-fluoro-2-((hexahydro-1H-pyrrolizin-7a-yl)methoxy)-7-(2-((1S,2R)-2-methylcyclopropyl)phenyl)pyrido[4,3-d]pyrimidine]	1.73
Oc1cc(-c2ncc3c(N4C[C@H]5CC[C@@H](C4)N5)nc(N4CCCC4)nc3c2F)c2ccccc2c1 [Example 118, 4-(4-((1R,5S)-3,8-diazabicyclo[3.2.1]octan-3-yl)-8-fluoro-2-(pyrrolidin-1-yl)pyrido[4,3-d]pyrimidin-7-yl)naphthalen-2-ol 2,2,2-trifluoroacetate]	> 16.7
Cc1cc2[nH]ncc2c(-c2ncc3c(N4C[C@H]5CC[C@@H](C4)N5)nc(OCC45CCCN4CCC5)nc3c2F)c1C [Example 249, 4-((1R,5S)-3,8-diazabicyclo[3.2.1]octan-3-yl)-7-(5,6-dimethyl-1H-indazol-4-yl)-8-fluoro-2-((hexahydro-1H-pyrrolizin-7a-yl)methoxy)pyrido[4,3-d]pyrimidine]	7.71
NC(=O)Cc1cccc2cccc(-c3ncc4c(N5C[C@H]6CC[C@@H](C5)N6)nc(OCC56CCCN5CCC6)nc4c3F)c12 [Example 240, 2-(8-(4-((1R,5S)-3,8-diazabicyclo[3.2.1]octan-3-yl)-8-fluoro-2-((tetrahydro-1H-pyrrolizin-7a(5H)-yl)methoxy)pyrido[4,3-d]pyrimidin-7-yl)naphthalen-1-yl)acetamide]	> 16.7
CC(C)n1ccnc1CCOc1nc(N2C[C@H]3CC[C@@H](C2)N3)c2cnc(-c3cc(O)cc4ccccc34)c(F)c2n1 [Example 91, 4-(4-((1R,5S)-3,8-diazabicyclo[3.2.1]octan-3-yl)-8-fluoro-2-(2-(1-isopropyl-1H-imidazol-2-yl)ethoxy)pyrido[4,3-d]pyrimidin-7-yl)naphthalen-2-ol]	5.51
Fc1c(-c2cccc3cccc(C(F)(F)F)c23)ncc2c(N3C[C@H]4CC[C@@H](C3)N4)nc(OC[C@@]34CCCN3C[C@H](F)C4)nc12 [Example 419, 4-((1R,5S)-3,8-diazabicyclo[3.2.1]octan-3-yl)-8-fluoro-2-(((2R,7aS)-2-fluorotetrahydro-1H-pyrrolizin-7a(5H)-yl)methoxy)-7-(8-(trifluoromethyl)naphthalen-1-yl)pyrido[4,3-d]pyrimidine]	2.78
O[C@H]1CN2CCC[C@@]2(COc2nc(N3CC4CCC(C3)N4)c3cnc(-c4cccc5cccc(Cl)c45)c(F)c3n2)C1 [Example 223, 7a-(((4-((1R,5S)-3,8-diazabicyclo[3.2.1]octan-3-yl)-7-(8-chloronaphthalen-1-yl)-8-fluoropyrido[4,3-d]pyrimidin-2-yl)oxy)methyl)hexahydro-1H-pyrrolizin-2-ol bis-2,2,2-trifluoroacetate]	4.27
